Source: patent US8445409B2, “Use of 5-benzyloxymethyl-1,2-isoxazoline derivatives as a herbicide” (Moghu Research Center Ltd., priority 2007, dated 2013)

Columns and labels:
Zoysiagrass = experiment: Turfgrass safety test (sod mat pots), visual phytotoxicity; format: in vivo, Zoysia japonica; details: for Phytotoxic effect, visual assessment: Zoysiagrass Week 2 / Phytotoxic effect, visual assessment: Zoysiagrass Week 4 / Phytotoxic effect, visual assessment: Zoysiagrass Week 6: 0-10 scale (10=completely killed)
Excerpt: (§1) Commercially available sod mats of zoysiagrass and bentgrass, Kentucky bluegrass, and perennial ryegrass were purchased. After cutting each turf sod mat in a size of 10 cm×20 cm, it was transplanted to a rectangular plastic pot having a surface area of 300 cm^2 wherein mixed soils including blend of a bed soil (Boonong, Horticultural Nursery Soil No. 3) and sandy loam soil were filled (mixing ratio, 1:1). After transplanting, the grass was mowed (0.5˜1.0 cm in height) once a week, and kept for one month in a greenhouse maintained at 25˜30° C. (day) or 15˜25° C. (night), then the test substance of the present invention was applied at dosage of 4, 2, 1 and 0.5 kg/ha. As a reference, Dithiopyr (32% EC, manufactured by Dongbu Hannong Chemical Company, KOREA) was applied at the recommended rate of 0.48 kg/ha, or twice or quadruple amount thereof, i.e., 0.96 and 1.92 kg/ha, respectively. Spray was made by a track sprayer equipped with a Teejet 8002 nozzle. Spray volume was adjusted to 2,000 L/ha, which was a typical value for an Asian (Korea and Japan) golf course. The spray solution was prepared by dissolving the “test substance” in acetone and adding the same volume of 0.2% (v/v) Tween 20 aqueous solution. Two, four or six weeks after the spray of the test substance, phytotoxicity to the turfgrass were visually evaluated based on 0 to 10 scale (0: no phytotoxic effect, 10: completely killed). The test was conducted in a randomized block design with a three replicates and the results were summarized in the following Table 2 is an average value of the replicates.

Bentgrass = experiment: as above; format: in vivo; details: 0-10 scale (10=completely killed)
Excerpt: as §1

Kentucky bluegrass = experiment: as above; format: in vivo; details: 0-10 scale (10=completely killed)
Excerpt: as §1

Perennial ryegrass = experiment: as above; format: in vivo; details: 0-10 scale (10=completely killed)
Excerpt: as §1

Large crabgrass = experiment: Herbicidal activity at different growth stages, fresh weight suppression; format: in vivo; details: fresh weight two weeks after treatment
Protocol: (§2) To a cup pot having a surface area of 100 cm^2 wherein mixed soils including blend bed soil (Boonong, Horticultural Bed Soil No. 3) and sandy loam soil were filled (mixing ratio, 1:1), seeds of large crabgrass and annual bluegrass were sown consecutively at an one week interval. The pots were moistened by sub-irrigation, and kept in a greenhouse maintained at 25˜30° C. (day) or 15˜25° C. (night). The said weeds were grown to various growth stages from pre-emergence to the four-leaf stage. Then, they were applied with the test substance of the present invention at dosage of 2, 1, 0.5, or 0.25 kg/ha. As a reference herbicide, Dithiopyr (32% EC, manufactured by Dongbu Hannong Chemical Company), was applied at 0.96, 0.48, or 0.24 kg/ha. Spray volume was adjusted to 2,000 L/ha. The method to spray of the test substance and prepare spray solutions were the same as described above. The reference herbicide was used after it was diluted with 0.2% (v/v) Tween 20 aqueous solution. The test was conducted in a randomized block design with three replicates. Two weeks after the treatment, plant parts remained above the pot soil surface were cut and the fresh weight was weighed. Results are given by a suppression ratio relative to the biomass that was obtained from the untreated group (see, Table 3).

Annual bluegrass = experiment: as above; format: in vivo; details: fresh weight two weeks after treatment
Protocol: as §2, with “Then, they were applied with the test substance of the present invention at dosage of 2, 1, 0.5, or 0.25 kg/ha. As a reference herbicide, Dithiopyr (32% EC, manufactured by Dongbu Hannong Chemical Company), was applied at 0.96, 0.48, or 0.24 kg/ha.” left out

Compound: CSC(=O)c1c(C(F)F)nc(C(F)(F)F)c(C(=O)SC)c1CC(C)C [Dithiopyr, reference compound]
- Phytotoxic effect, visual assessment: Zoysiagrass Week 2 (Zoysiagrass; 0.48 kg/ha (recommended rate)): 1.0
- Phytotoxic effect, visual assessment: Zoysiagrass Week 4 (Zoysiagrass; 0.48 kg/ha (recommended rate)): 1.0
- Phytotoxic effect, visual assessment: Zoysiagrass Week 6 (Zoysiagrass; 0.48 kg/ha (recommended rate)): 0.7
- Phytotoxic effect, visual assessment: Zoysiagrass Week 2 (Zoysiagrass; 0.96 kg/ha): 2.3
- Phytotoxic effect, visual assessment: Zoysiagrass Week 4 (Zoysiagrass; 0.96 kg/ha): 1.5
- Phytotoxic effect, visual assessment: Zoysiagrass Week 6 (Zoysiagrass; 0.96 kg/ha): 1.3
- Phytotoxic effect, visual assessment: Zoysiagrass Week 2 (Zoysiagrass; 1.92 kg/ha): 3.7
- Phytotoxic effect, visual assessment: Zoysiagrass Week 4 (Zoysiagrass; 1.92 kg/ha): 3.3
- Phytotoxic effect, visual assessment: Zoysiagrass Week 6 (Zoysiagrass; 1.92 kg/ha): 3.0
- Phytotoxicity against zoysiagrass (in words) (Zoysiagrass; in vivo): clearly evidencing the phytotoxicity
- Phytotoxic effect, visual assessment: Bentgrass Week 2 (Bentgrass; 0.48 kg/ha (recommended rate)): 1.5
- Phytotoxic effect, visual assessment: Bentgrass Week 4 (Bentgrass; 0.48 kg/ha (recommended rate)): 0.3
- Phytotoxic effect, visual assessment: Bentgrass Week 6 (Bentgrass; 0.48 kg/ha (recommended rate)): 0.3
- Phytotoxic effect, visual assessment: Bentgrass Week 2 (Bentgrass; 0.96 kg/ha): 2.3
- Phytotoxic effect, visual assessment: Bentgrass Week 4 (Bentgrass; 0.96 kg/ha): 1.7
- Phytotoxic effect, visual assessment: Bentgrass Week 6 (Bentgrass; 0.96 kg/ha): 2.0
- Phytotoxic effect, visual assessment: Bentgrass Week 2 (Bentgrass; 1.92 kg/ha): 3.3
- Phytotoxic effect, visual assessment: Bentgrass Week 4 (Bentgrass; 1.92 kg/ha): 4.2
- Phytotoxic effect, visual assessment: Bentgrass Week 6 (Bentgrass; 1.92 kg/ha): 4.2
- Phytotoxic effect, visual assessment: Kentucky bluegrass Week 2 (Kentucky bluegrass; 0.48 kg/ha (recommended rate)): 1.5
- Phytotoxic effect, visual assessment: Kentucky bluegrass Week 4 (Kentucky bluegrass; 0.48 kg/ha (recommended rate)): 0.5
- Phytotoxic effect, visual assessment: Kentucky bluegrass Week 6 (Kentucky bluegrass; 0.48 kg/ha (recommended rate)): 0.7
- Phytotoxic effect, visual assessment: Kentucky bluegrass Week 2 (Kentucky bluegrass; 0.96 kg/ha): 2.2
- Phytotoxic effect, visual assessment: Kentucky bluegrass Week 4 (Kentucky bluegrass; 0.96 kg/ha): 2.7
- Phytotoxic effect, visual assessment: Kentucky bluegrass Week 6 (Kentucky bluegrass; 0.96 kg/ha): 2.7
- Phytotoxic effect, visual assessment: Kentucky bluegrass Week 2 (Kentucky bluegrass; 1.92 kg/ha): 3.7
- Phytotoxic effect, visual assessment: Kentucky bluegrass Week 4 (Kentucky bluegrass; 1.92 kg/ha): 4.2
- Phytotoxic effect, visual assessment: Kentucky bluegrass Week 6 (Kentucky bluegrass; 1.92 kg/ha): 4.2
- Phytotoxic effect, visual assessment: Perennial ryegrass Week 2 (Perennial ryegrass; 0.48 kg/ha (recommended rate)): 1.3
- Phytotoxic effect, visual assessment: Perennial ryegrass Week 4 (Perennial ryegrass; 0.48 kg/ha (recommended rate)): 0.3
- Phytotoxic effect, visual assessment: Perennial ryegrass Week 6 (Perennial ryegrass; 0.48 kg/ha (recommended rate)): 0.3
- Phytotoxic effect, visual assessment: Perennial ryegrass Week 2 (Perennial ryegrass; 0.96 kg/ha): 2.0
- Phytotoxic effect, visual assessment: Perennial ryegrass Week 4 (Perennial ryegrass; 0.96 kg/ha): 2.0
- Phytotoxic effect, visual assessment: Perennial ryegrass Week 6 (Perennial ryegrass; 0.96 kg/ha): 1.3
- Phytotoxic effect, visual assessment: Perennial ryegrass Week 2 (Perennial ryegrass; 1.92 kg/ha): 3.3
- Phytotoxic effect, visual assessment: Perennial ryegrass Week 4 (Perennial ryegrass; 1.92 kg/ha): 2.7
- Phytotoxic effect, visual assessment: Perennial ryegrass Week 6 (Perennial ryegrass; 1.92 kg/ha): 2.3
- Suppression ratio relative to the biomass of the untreated group: Large crabgrass 1 leaf (Large crabgrass; .24 kg/ha): 100%
- Suppression ratio relative to the biomass of the untreated group: Large crabgrass 2 leaf (Large crabgrass; .24 kg/ha): 89%
- Suppression ratio relative to the biomass of the untreated group: Large crabgrass 3 leaf (Large crabgrass; .24 kg/ha): 86%
- Suppression ratio relative to the biomass of the untreated group: Large crabgrass 4 leaf (Large crabgrass; .24 kg/ha): 56%
- Suppression ratio relative to the biomass of the untreated group: Large crabgrass PRE (Large crabgrass; .24 kg/ha): 100%
- Suppression ratio relative to the biomass of the untreated group: Large crabgrass 1 leaf (Large crabgrass; .48 kg/ha): 100%
- Suppression ratio relative to the biomass of the untreated group: Large crabgrass 2 leaf (Large crabgrass; .48 kg/ha): 95%
- Suppression ratio relative to the biomass of the untreated group: Large crabgrass 3 leaf (Large crabgrass; .48 kg/ha): 89%
- Suppression ratio relative to the biomass of the untreated group: Large crabgrass 4 leaf (Large crabgrass; .48 kg/ha): 57%
- Suppression ratio relative to the biomass of the untreated group: Large crabgrass PRE (Large crabgrass; .48 kg/ha): 100%
- Suppression ratio relative to the biomass of the untreated group: Large crabgrass 1 leaf (Large crabgrass; .96 kg/ha): 100%
- Suppression ratio relative to the biomass of the untreated group: Large crabgrass 2 leaf (Large crabgrass; .96 kg/ha): 98%
- Suppression ratio relative to the biomass of the untreated group: Large crabgrass 3 leaf (Large crabgrass; .96 kg/ha): 89%
- Suppression ratio relative to the biomass of the untreated group: Large crabgrass 4 leaf (Large crabgrass; .96 kg/ha): 66%
- Suppression ratio relative to the biomass of the untreated group: Large crabgrass PRE (Large crabgrass; .96 kg/ha): 100%
- Suppression ratio relative to the biomass of the untreated group: Annual bluegrass 1 leaf (Annual bluegrass; .24 kg/ha): 90%
- Suppression ratio relative to the biomass of the untreated group: Annual bluegrass 2 leaf (Annual bluegrass; .24 kg/ha): 87%
- Suppression ratio relative to the biomass of the untreated group: Annual bluegrass 3 leaf (Annual bluegrass; .24 kg/ha): 46%
- Suppression ratio relative to the biomass of the untreated group: Annual bluegrass 4 leaf (Annual bluegrass; .24 kg/ha): 4%
- Suppression ratio relative to the biomass of the untreated group: Annual bluegrass PRE (Annual bluegrass; .24 kg/ha): 100%
- Suppression ratio relative to the biomass of the untreated group: Annual bluegrass 1 leaf (Annual bluegrass; .48 kg/ha): 95%
- Suppression ratio relative to the biomass of the untreated group: Annual bluegrass 2 leaf (Annual bluegrass; .48 kg/ha): 88%
- Suppression ratio relative to the biomass of the untreated group: Annual bluegrass 3 leaf (Annual bluegrass; .48 kg/ha): 44%
- Suppression ratio relative to the biomass of the untreated group: Annual bluegrass 4 leaf (Annual bluegrass; .48 kg/ha): 10%
- Suppression ratio relative to the biomass of the untreated group: Annual bluegrass PRE (Annual bluegrass; .48 kg/ha): 100%
- Suppression ratio relative to the biomass of the untreated group: Annual bluegrass 1 leaf (Annual bluegrass; .96 kg/ha): 97%
- Suppression ratio relative to the biomass of the untreated group: Annual bluegrass 2 leaf (Annual bluegrass; .96 kg/ha): 91%
- Suppression ratio relative to the biomass of the untreated group: Annual bluegrass 3 leaf (Annual bluegrass; .96 kg/ha): 61%
- Suppression ratio relative to the biomass of the untreated group: Annual bluegrass 4 leaf (Annual bluegrass; .96 kg/ha): 35%
- Suppression ratio relative to the biomass of the untreated group: Annual bluegrass PRE (Annual bluegrass; .96 kg/ha): 100%
